Results from patent publication US9381191B2, “Imidazopyridine derivatives useful in treating diabetes” (METABRAIN RESEARCH, priority 2012, dated 2016).
Where a name gives a salt, the structure may show the parent alone.

Assays:
[1] = system: INS-1 cells; assay: Stimulation test of insulin secretion by INS-1 cells; assay type: cell-based; conditions: Rattus norvegicus, INS1, 1 h, insulin secretion by INS-1 cells in response to glucose; for insulin secretion, % of control at 10 µM: read-out: HGP % of ctrl @ 10 μM; for insulin secretion, % of control at 50 µM: read-out: HGP % of ctrl @ 50 μM
Procedure: The different compounds were tested on an INS-1 beta-pancreatic line in order to evaluate their capability of potentializing the insulin secretion in response to glucose. Very briefly, the cells are cultivated in a culture medium, RPMI 1640 with 10 mM glucose containing 1 mM of sodium pyruvate, 50 μM of 2-mercaptoethanol, 2 mM of glutamine, 10 mM of HEPES, 100 IU/ml of penicillin, 100 μg/ml of streptomycin and 10% of inactivated fetal calf serum, as described by Asfari et al.. For the insulin secretion test, the INS-1 cells are sown and cultivated in 96-well plates. After 3 days of cultivation at 37° C. in a humid atmosphere (95% air/5% CO2), the medium is removed and the cells are incubated for 16 h in a medium containing 5 mM of glucose and 1% of inactivated fetal calf serum. On the day of the test, the cells are washed with a Krebs buffer (pH 7.4) containing 0.1% of bovine albumin and then pre-incubated for 30 min at 37° C. in this same buffer containing 2.8 mM of glucose. Finally, the cells are again washed with Krebs buffer and then incubated for 1 h in the buffer of the secretion test (Krebs, pH 7.4 containing 0.1% of bovine albumin and 3.5 mM of glucose and molecules to be evaluated). At the end of the test, the cell supernatant is recovered in order to measure therein the secreted insulin, by means of an ELISA kit using a rat anti-insulin antibody (ELISA Alpco Cat no. 80-INSRTH-E10). Each condition is tested in triplicate. The 3.5 mM glucose, the 10^−7M GLP-1 and the Forskoline 10^−7/IBMX 10^−5M mixtures are used as positive controls of the test. A compound stimulates the secretion of insulin if this factor is greater than or equal to 130% of the control for a given glucose dose.

[2] = system: isolated rat hepatocytes; assay: Hepatic production of glucose, 3 h incubation; assay type: cell-based, Wistar rat; conditions: for activity at 50 µM / activity at 100 µM: Hepatocyte, rat hepatocytes; for activity at 50 µM: read-out: HGP % of ctrl @ 50 μM; for activity at 100 µM: read-out: HGP % of ctrl @ 100 μM
Procedure: The hepatocytes are isolated from Wistar rat liver having fasted for 24 h after perfusion of collagenase in the portal vein. 1) The freshly isolated hepatocytes are sown in 6-well plates coated with collagen and containing an adhesion medium (Williams Medium). After adhesion, the medium is replaced with RPMI 1640 medium without any glucose, containing hydrocortisone (7·10^−5M) for a duration from 16 to 18 h. The next day, the glucose hepatic production test is conducted in a Krebs medium for 3 h. The basal conditions are cells incubated with only Krebs, the stimulated conditions are the cells placed in Krebs+lactate+pyruvate, the produced conditions are the cells exposed to chemical compounds in a Krebs/lactate/pyruvate medium. In the case when the compounds are dissolved in DMSO, all the conditions of the tests are met in the presence of a final concentration of 0.1% DMSO. The positive control of the test is the mercaptopicolinate known for its inhibitory action on hepatic production of glucose via the phosphoenolpyruvate carboxykinase. For short term treatments, the compounds are incubated for 3 h. For long term treatments, the compounds are incubated for 20 h at the moment when the hepatocytes are cultivated in RPMI and then added during the hepatic production test for 3 h. At the end of the 3 hours of incubation, the supernatant is recovered for measurement of glucose with a colorimetric method using glucose oxidase. The cells are lysed with a 0.1% NaOH aqueous solution in order to measure the amount of protein with the Lowry method. The results are expressed in mmol of glucose per mg of protein.

SMILES	insulin secretion, % of control at 10 µM [1] [%]	insulin secretion, % of control at 50 µM [1] [%]	activity at 50 µM [2] [%]	activity at 100 µM [2] [%]	inhibition of hepatic production of glucose ([2]; with two doses)	inhibition of hepatic production of glucose ([2]; dose of 100 μM)
CCOC(=O)COCc1nc2ccccn2c1C#Cc1ccccc1F [Derivative 25, ethyl 2-((3-((2-fluorophenyl)-ethynyl)imidazo[1,2-a]pyridin-2-yl)methoxy)acetate]	134	226	83	73	–	–
COC(=O)c1ccccc1OCc1nc2ccccn2c1C#Cc1ccccc1 [Derivative 78, methyl 2-((3-(phenylethynyl)-imidazo[1,2-a]pyridin-2-yl)methoxy)benzoate]	197	152	51	44	strongest inhibitions	–
O=C(COCc1nc2ccccn2c1C#Cc1ccc(F)cc1)NO [Derivative 59, 2-((3-((4-fluorophenyl)ethynyl)-imidazo[1,2-a]pyridin-2-yl)methoxy)-N-hydroxy acetamide]	134	220	97	45	–	strongest inhibitions
CCOC(=O)CSCc1nc2ccc(Cl)cn2c1C#Cc1cccc(C(F)(F)F)c1 [Derivative 111, ethyl 2-[[6-chloro-3-[2-[3-(trifluoro-methyl)phenyl]ethynyl]imidazo [1,2-a]pyridin-2-yl]methylsulfanyl]acetate]	136	173	73	27	–	strongest inhibitions
CCOC(=O)CSCc1nc2ccc(Cl)cn2c1C#Cc1ccc(F)cc1 [Derivative 110, ethyl 2-[[6-chloro-3-[2-[4-(fluoro)-phenyl]ethynyl]imidazo[1,2-a]pyridin-2-yl]methylsulfanyl]acetate]	162	140	50	37	strongest inhibitions	–
O=C(O)COCc1nc2ccccn2c1C#Cc1ccc(OC(F)(F)F)c(F)c1 [Derivative 39, 2-((3-((3-fluoro-4-(trifluoro-methoxy)phenyl)ethynyl)imidazo [1,2-a]pyridin-2-yl)methoxy)acetic acid]	121	137	–	–	–	–
O=C(O)c1ccccc1OCc1nc2ccccn2c1C#Cc1ccc(F)cc1 [Derivative 88, 2-((3-((4-fluorophenyl)ethynyl)-imidazo[1,2-a]pyridin-2-yl)methoxy)benzoic acid]	138	263	67	50	–	strongest inhibitions
O=C(O)CSCc1nc2ccc(Cl)cn2c1C#Cc1ccc(F)cc1 [Derivative 117, 2-[[6-chloro-3-[2-(4-fluorophenyl)ethynyl]imidazo [1,2-a]pyridin-2-yl]methylsulfanyl]acetic acid]	130	137	55	43	strongest inhibitions	–
CN(C)CCNC(=O)COCc1nc2ccccn2c1C#Cc1cccc(C(F)(F)F)c1 [Derivative 55, N-(2-(dimethylamino)ethyl)-2-((3-((3-(trifluoromethyl)-phenyl)ethynyl)imidazo[1,2-a]-pyridin-2-yl)methoxy)acetamide]	130	135	–	–	–	–
OCCSCc1nc2ccc(Cl)cn2c1C#Cc1cccc(C(F)(F)F)c1 [Derivative 131, 2-[[6-chloro-3-[2-[3-(trifluoromethyl)phenyl]ethynyl]imidazo[1,2-a]pyridin-2-yl]methylsulfanyl]ethanol]	131	–	–	–	–	–
CCOC(=O)COCc1nc2ccccn2c1C#Cc1ccccc1 [Derivative 1, ethyl 2-((3-(phenylethynyl)-imidazo[1,2-a]pyridin-2-yl)-methoxy)acetate]	121	211	70	56	–	–
COC(=O)CN(C)Cc1nc2ccccn2c1C#Cc1cccc(C(F)(F)F)c1 [Derivative 72, methyl 2-(methyl((3-((3-(trifluoromethyl)-phenyl)ethynyl)-imidazo[1,2-a]pyridin-2-yl)methyl)amino)acetate]	172	151	–	–	–	–
CCOC(=O)CSCc1nc2ccc(Cl)cn2c1C#Cc1cccc(OC(F)(F)F)c1 [Derivative 112, ethyl 2-[[6-chloro-3-[2-[3-(trifluoromethoxy)phenyl]ethynyl]imidazo[1,2-a]pyridin-2-yl]methylsulfanyl]acetate]	150	256	65	26	–	strongest inhibitions
COc1cccn2c(C#Cc3cccc(C(F)(F)F)c3)c(CSCCO)nc12 [Derivative 130, 2-[[8-methoxy-3-[2-[3-(trifluoromethyl)phenyl]ethynyl]imidazo[1,2-a]pyridin-2-yl]methylsulfanyl]ethanol]	150	114	–	–	–	–
CCOC(=O)[C@@H](N)CSCc1nc2ccccn2c1C#Cc1cccc(C(F)(F)F)c1 [Derivative 113, ethyl (2R)-2-amino-3-[[3-[2-[3-(trifluoromethyl)phenyl]ethynyl]imidazo[1,2-a]pyridin-2-yl]methyl-sulfanyl]propanoate]	136	112	–	–	–	–
CCOC(=O)COCc1nc2ccccn2c1C#Cc1ccccc1C(F)(F)F [Derivative 26, ethyl 2-((3-((2-(trifluoromethyl)-phenyl)ethynyl)imidazo[1,2-a]pyridin-2-yl)methoxy)acetate]	138	246	78	67	–	–
CCOC(=O)COCc1nc2ccccn2c1C#Cc1cccc(C#N)c1 [Derivative 14, ethyl 2-((3-((3-cyanophenyl)-ethynyl)imidazo[1,2-a]pyridin-2-yl)methoxy)acetate]	100	242	86	73	–	–
CCOC(=O)CN(C)Cc1nc2ccc(Cl)cn2c1C#Cc1cccc(C(F)(F)F)c1 [Derivative 102, ethyl 2-[[6-chloro-3-[2-[3-(trifluoromethyl)phenyl]ethynyl]imidazo[1,2-a]pyridin-2-yl]methyl-methyl-amino]acetate]	176	107	–	–	–	–
CCOC(=O)COCc1nc2ccccn2c1C#Cc1ccsc1 [Derivative 9, ethyl 2-((3-(thiophen-3-ylethynyl)-imidazo[1,2-a]pyridin-2-yl)methoxy)acetate]	116	175	–	–	–	–
CCOC(=O)CN(C)Cc1nc2ccccn2c1C#Cc1cccc(C(F)(F)F)c1 [Derivative 101, ethyl 2-[methyl-[[3-[2-[3-(trifluoromethyl)phenyl]ethynyl]imidazo[1,2-a]pyridin-2-yl]-methyl]amino]acetate hydrochloride]	163	111	–	–	–	–
